Laboratory results reported in ChEMBL document CHEMBL3045761, “One pot synthesis of some novel coumarins containing 5-(substituted-2-hydroxybenzoyl) pyridine as a new class of antimicrobial and antituberculosis agents” (2013).
In brackets after ≈: the same amount, converted by molar mass.

How the values were obtained:
Assay type in all cases: functional
[1] = system: Mycobacterium tuberculosis; test: Antitubercular activity against Mycobacterium tuberculosis H37Rv after 21 days by Lowenstein-Jensen method; conditions: 504 h
Aspergillus niger = test: Antifungal activity against Aspergillus niger MTCC 282 after overnight incubation by broth microdilution method
Staphylococcus aureus = test: Antibacterial activity against Staphylococcus aureus MTCC 96 after overnight incubation by broth microdilution method
Bacillus subtilis = test: Antibacterial activity against Bacillus subtilis MTCC 441 after overnight incubation by broth microdilution method
Candida albicans = test: Antifungal activity against Candida albicans MTCC 227 after overnight incubation by broth microdilution method
Salmonella typhi = test: Antibacterial activity against Salmonella enterica subsp. enterica serovar Typhi MTCC 98 after overnight incubation by broth microdilution method
Escherichia coli = test: Antibacterial activity against Escherichia coli MTCC 443 after overnight incubation by broth microdilution method

Molecule | MIC90 [1] [µg/mL] | MIC99 (Aspergillus niger) [µg/mL] | MIC99 (Staphylococcus aureus) [µg/mL] | MIC99 (Bacillus subtilis) [µg/mL] | MIC99 (Candida albicans) [µg/mL] | MIC99 (Salmonella typhi) [µg/mL] | MIC99 (Escherichia coli) [µg/mL]
O=C(c1ccc(-c2cc3c(ccc4ccccc43)oc2=O)nc1)c1cc(Cl)ccc1O | 500 (≈ 1170 µM) | 100 (≈ 234 µM) | 100 (≈ 234 µM) | 125 (≈ 292 µM) | 1000 (≈ 2340 µM) | 250 (≈ 584 µM) | 250 (≈ 584 µM)
O=C(c1ccc(-c2cc3ccccc3oc2=O)nc1)c1ccccc1O | 1000 (≈ 2910 µM) | 1000 (≈ 2910 µM) | 200 (≈ 583 µM) | 250 (≈ 728 µM) | 500 (≈ 1460 µM) | 125 (≈ 364 µM) | 100 (≈ 291 µM)
Cc1ccc(O)c(C(=O)c2ccc(-c3cc4cc(Br)ccc4oc3=O)nc2)c1 | 100 (≈ 229 µM) | 500 (≈ 1150 µM) | 500 (≈ 1150 µM) | 500 (≈ 1150 µM) | 500 (≈ 1150 µM) | 100 (≈ 229 µM) | 100 (≈ 229 µM)
O=C(c1ccc(-c2cc3ccccc3oc2=O)nc1)c1cc(Cl)ccc1O | 250 (≈ 662 µM) | > 1000 | 250 (≈ 662 µM) | 200 (≈ 529 µM) | 500 (≈ 1320 µM) | 250 (≈ 662 µM) | 250 (≈ 662 µM)
NYSTATIN | – | 100 | – | – | 100 | – | –
COc1cccc2cc(-c3ccc(C(=O)c4ccccc4O)cn3)c(=O)oc12 | 500 (≈ 1340 µM) | > 1000 | 500 (≈ 1340 µM) | 200 (≈ 536 µM) | 1000 (≈ 2680 µM) | 250 (≈ 670 µM) | 200 (≈ 536 µM)
O=C(c1ccc(-c2cc3cc(Br)ccc3oc2=O)nc1)c1ccccc1O | 250 (≈ 592 µM) | > 1000 | 200 (≈ 474 µM) | 100 (≈ 237 µM) | 200 (≈ 474 µM) | 125 (≈ 296 µM) | 50 (≈ 118 µM)
COc1cccc2cc(-c3ccc(C(=O)c4cc(C)ccc4O)cn3)c(=O)oc12 | 62.5 (≈ 161 µM) | 500 (≈ 1290 µM) | 250 (≈ 645 µM) | 250 (≈ 645 µM) | 1000 (≈ 2580 µM) | 100 (≈ 258 µM) | 100 (≈ 258 µM)
COc1cccc2cc(-c3ccc(C(=O)c4cc(Cl)ccc4O)cn3)c(=O)oc12 | 500 (≈ 1230 µM) | > 1000 | 200 (≈ 490 µM) | 200 (≈ 490 µM) | > 1000 | 200 (≈ 490 µM) | 125 (≈ 307 µM)
O=C(c1ccc(-c2cc3c(ccc4ccccc43)oc2=O)nc1)c1ccccc1O | 250 (≈ 635 µM) | 500 (≈ 1270 µM) | 100 (≈ 254 µM) | 100 (≈ 254 µM) | 250 (≈ 635 µM) | 250 (≈ 635 µM) | 200 (≈ 508 µM)
COC1=CC(=O)C[C@@H](C)[C@]12Oc1c(Cl)c(OC)cc(OC)c1C2=O [GRISEOFULVIN] | – | 100 (≈ 283 µM) | – | – | 500 (≈ 1420 µM) | – | –
Cc1ccc(O)c(C(=O)c2ccc(-c3cc4ccccc4oc3=O)nc2)c1 | 100 (≈ 280 µM) | 1000 (≈ 2800 µM) | 100 (≈ 280 µM) | 200 (≈ 560 µM) | 250 (≈ 700 µM) | 200 (≈ 560 µM) | 250 (≈ 700 µM)
O=C(c1ccc(-c2cc3cc(Br)ccc3oc2=O)nc1)c1cc(Cl)ccc1O | 1000 (≈ 2190 µM) | > 1000 | 62.5 (≈ 137 µM) | 100 (≈ 219 µM) | 100 (≈ 219 µM) | 100 (≈ 219 µM) | 62.5 (≈ 137 µM)
Cc1ccc(O)c(C(=O)c2ccc(-c3cc4c(ccc5ccccc54)oc3=O)nc2)c1 | 1000 (≈ 2450 µM) | 1000 (≈ 2450 µM) | 125 (≈ 307 µM) | 100 (≈ 245 µM) | 500 (≈ 1230 µM) | 250 (≈ 614 µM) | 200 (≈ 491 µM)
CC1(C)S[C@@H]2[C@H](NC(=O)[C@H](N)c3ccccc3)C(=O)N2[C@H]1C(=O)O [AMPICILLIN] | – | – | 250 (≈ 715 µM) | 250 (≈ 715 µM) | – | 100 (≈ 286 µM) | 100 (≈ 286 µM)
